From patent publication US20080293712A1, “Benzo[C][2,7]Naphtyridine Derivatives, Methods of Making Thereof and Methods of Use Thereof” (WYETH, priority 2007, published 2008) come the findings set out here.

The assay addresses T1, PDK-1 (Homo sapiens, UniProt O15530).
T1 sequence (O15530 1-556): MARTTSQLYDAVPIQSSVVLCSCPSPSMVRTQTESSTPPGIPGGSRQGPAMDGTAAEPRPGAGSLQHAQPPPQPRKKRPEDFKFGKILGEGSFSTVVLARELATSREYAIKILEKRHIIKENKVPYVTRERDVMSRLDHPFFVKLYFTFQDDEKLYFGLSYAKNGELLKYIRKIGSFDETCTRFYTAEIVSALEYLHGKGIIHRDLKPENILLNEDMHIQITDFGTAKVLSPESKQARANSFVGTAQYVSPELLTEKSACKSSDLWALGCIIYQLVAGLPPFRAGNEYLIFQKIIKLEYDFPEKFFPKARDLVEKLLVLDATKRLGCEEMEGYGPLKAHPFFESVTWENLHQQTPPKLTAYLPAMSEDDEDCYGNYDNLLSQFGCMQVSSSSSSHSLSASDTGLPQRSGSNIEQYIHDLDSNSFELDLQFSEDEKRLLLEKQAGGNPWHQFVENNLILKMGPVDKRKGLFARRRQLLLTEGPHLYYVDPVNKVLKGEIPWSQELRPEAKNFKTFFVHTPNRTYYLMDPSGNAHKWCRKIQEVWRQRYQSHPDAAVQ
The experiment in a line: PDK-1 kinase inhibition ELISA assay (phosphorylation of His6-tagged SGK1 S422D by PDK-1). The format is biochemical. The note with it: PDK-1 ELISA, Table 11; read-out: Average IC50. A general note: ELISA stands for enzyme-linked immunosorbent assay.

Molecules are shown by their SMILES.

For the compound `COc1cc2ncc3c(N)nc(-c4cncc(OC[C@@H](N)CNc5ccc(F)c(Cl)c5)c4)cc3c2cc1OC` [Ib-84, (2S)-3-{[5-(4-amino-8,9-dimethoxybenzo[c][2,7]naphthyridin-2-yl)pyridin-3-yl]oxy}-N1-(3-chloro-4-fluorophenyl)propane-1,2-diamine], the IC50 – broadly, the concentration at which inhibition is half-maximal – was determined as 5 nM.

With `COc1cc2ncc3c(N)nc(-c4cncc(OC[C@@H](N)CNc5ccc(F)cc5F)c4)cc3c2cc1OC` [Ib-85, (2S)-3-{[5-(4-amino-8,9-dimethoxybenzo[c][2,7]naphthyridin-2-yl)pyridin-3-yl]oxy}-N1-(2,4-difluorophenyl)propane-1,2-diamine], the IC50 was 5 nM.

For the compound `COc1cc2ncc3c(N)nc(-c4cncc(OC[C@@H](N)CNC(C)(C)C)c4)cc3c2cc1OC` [Ib-86, (2S)-3-{[5-(4-amino-8,9-dimethoxybenzo[c][2,7]naphthyridin-2-yl)pyridin-3-yl]oxy}-N1-tert-butylpropane-1,2-diamine], the IC50 stood at 77 nM.

As for `COc1cc2ncc3c(N)nc(-c4cncc(OC[C@@H](N)CNC(C)(C)Cc5ccc(F)cc5)c4)cc3c2cc1OC` [Ib-87, (2S)-3-{[5-(4-amino-8,9-dimethoxybenzo[c][2,7]naphthyridin-2-yl)pyridin-3-yl]oxy}-N1-[2-(4-fluorophenyl)-1,1-dimethylethyl]propane-1,2-diamine], the IC50 worked out at 12 nM.

As for `COc1cc2ncc3c(N)nc(-c4cncc(OC[C@@H](N)CNC5CCCCC5)c4)cc3c2cc1OC` [Ib-89, (2S)-3-{[5-(4-amino-8,9-dimethoxybenzo[c][2,7]naphthyridin-2-yl)pyridin-3-yl]oxy}-N1-cyclohexylpropane-1,2-diamine], the 50% inhibitory concentration (IC50) was determined as 61 nM.

On to `COc1cc2ncc3c(N)nc(-c4cncc(OC[C@@H](N)CNC(C)(C)c5ccccc5)c4)cc3c2cc1OC` [Ib-90, (2S)-3-{[5-(4-amino-8,9-dimethoxybenzo[c][2,7]naphthyridin-2-yl)pyridin-3-yl]oxy}-N1-(1-methyl-1-phenylethyl)propane-1,2-diamine], for which the IC50 amounted to 7 nM.

Consider `COc1cc2ncc3c(N)nc(-c4cncc(OC[C@@H](N)CNC5CCC(O)CC5)c4)cc3c2cc1OC` (stereo partly drawn) [Ib-91, 4-{[(2S)-2-amino-3-{[5-(4-amino-8,9-dimethoxybenzo[c][2,7]naphthyridin-2-yl)pyridin-3-yl]oxy}propyl]amino}cyclohexanol], for which the half-inhibitory concentration (IC50) stood at 40 nM.

Regarding `COc1cc2ncc3c(N)nc(-c4cncc(OC[C@@H](N)CNC(C)(C)c5cccnc5)c4)cc3c2cc1OC` [Ib-93, (2S)-3-{[5-(4-amino-8,9-dimethoxybenzo[c][2,7]naphthyridin-2-yl)pyridin-3-yl]oxy}-N1-(1-methyl-1-pyridin-3-ylethyl)propane-1,2-diamine], the IC50 was determined as 6 nM.

With `COc1cc2ncc3c(N)nc(-c4cncc(OC[C@@H](N)CNC(C)(C)c5ccccn5)c4)cc3c2cc1OC` [Ib-94, (2S)-3-{[5-(4-amino-8,9-dimethoxybenzo[c][2,7]naphthyridin-2-yl)pyridin-3-yl]oxy}-N1-(1-methyl-1-pyridin-2-ylethyl)propane-1,2-diamine], the IC50 was determined as 4 nM.

Regarding `COc1cc2ncc3c(N)nc(-c4cncc(OC[C@@H](N)CNCC5CCCCC5)c4)cc3c2cc1OC` [Ib-95, (2S)-3-{[5-(4-amino-8,9-dimethoxybenzo[c][2,7]naphthyridin-2-yl)pyridin-3-yl]oxy}-N1-(cyclohexylmethyl)propane-1,2-diamine], the IC50 stood at 53 nM.

Turning to `COc1cc2ncc3c(N)nc(-c4cncc(OC[C@@H](N)CNC5CCOCC5)c4)cc3c2cc1OC` [Ib-96, (2S)-3-{[5-(4-amino-8,9-dimethoxybenzo[c][2,7]naphthyridin-2-yl)pyridin-3-yl]oxy}-N1-(tetrahydro-2H-pyran-4-yl)propane-1,2-diamine], the IC50 was determined as 26 nM.

With `COc1cc2ncc3c(N)nc(-c4cncc(OC[C@@H](N)CNCCc5ccncc5)c4)cc3c2cc1OC` [Ib-97, (2S)-3-{[5-(4-amino-8,9-dimethoxybenzo[c][2,7]naphthyridin-2-yl)pyridin-3-yl]oxy}-N1-(2-pyridin-4-ylethyl)propane-1,2-diamine], the IC50 was 24 nM.

Turning to `COc1cc2ncc3c(N)nc(-c4cncc(OC[C@@H](N)CN5CCC[C@H]5c5nccs5)c4)cc3c2cc1OC` [Ib-98, 2-[5-({(2S)-2-amino-3-[(2S)-2-(1,3-thiazol-2-yl)pyrrolidin-1-yl]propyl}oxy)pyridin-3-yl]-8,9-dimethoxybenzo[c][2,7]naphthyridin-4-amine], the IC50 was found to be 10 nM.

On to `COc1cc2ncc3c(N)nc(-c4cncc(OC[C@@H](N)CNC5CCC5)c4)cc3c2cc1OC` [Ib-100, (2S)-3-{[5-(4-amino-8,9-dimethoxybenzo[c][2,7]naphthyridin-2-yl)pyridin-3-yl]oxy}-N1-cyclobutylpropane-1,2-diamine], for which the concentration for half-maximal inhibition (IC50) turned out to be 63 nM.

With `COc1cc2ncc3c(N)nc(-c4cncc(OC[C@@H](N)CNC5CCCC5)c4)cc3c2cc1OC` [Ib-101, (2S)-3-{[5-(4-amino-8,9-dimethoxybenzo[c][2,7]naphthyridin-2-yl)pyridin-3-yl]oxy}-N1-cyclopentylpropane-1,2-diamine], the concentration for half-maximal inhibition (IC50) was 92 nM.

In the case of `COc1cc2ncc3c(N)nc(-c4cncc(OC[C@@H](N)CN5CCC[C@@H]5c5nccs5)c4)cc3c2cc1OC` [Ib-102, 2-[5-({(2S)-2-amino-3-[(2R)-2-(1,3-thiazol-2-yl)pyrrolidin-1-yl]propyl}oxy)pyridin-3-yl]-8,9-dimethoxybenzo[c][2,7]naphthyridin-4-amine], the IC50 is 38 nM.

Turning to `COc1cc2ncc3c(N)nc(-c4cncc(OC[C@@H](N)CNCC5(c6ccccc6)CCOCC5)c4)cc3c2cc1OC` [Ib-104, (2S)-3-{[5-(4-amino-8,9-dimethoxybenzo[c][2,7]naphthyridin-2-yl)pyridin-3-yl]oxy}-N1-[(4-phenyltetrahydro-2H-pyran-4-yl)methyl]propane-1,2-diamine], the half-maximal inhibitory concentration (IC50) came to 25 nM.

`COc1cc2ncc3c(N)nc(-c4cncc(OC[C@@H](N)CNCC5(c6ccccc6)CCCC5)c4)cc3c2cc1OC` [Ib-105, (2S)-3-{[5-(4-amino-8,9-dimethoxybenzo[c][2,7]naphthyridin-2-yl)pyridin-3-yl]oxy}-N1-[(1-phenylcyclopentyl)methyl]propane-1,2-diamine]: the 50% inhibitory concentration (IC50) turned out to be 41 nM.

Regarding `COc1cc2ncc3c(N)nc(-c4cncc(OC[C@@H](N)CNCC5(c6ccccc6)CC5)c4)cc3c2cc1OC` [Ib-106, (2S)-3-{[5-(4-amino-8,9-dimethoxybenzo[c][2,7]naphthyridin-2-yl)pyridin-3-yl]oxy}-N1-[(1-phenylcyclopropyl)methyl]propane-1,2-diamine], the IC50 turned out to be 32 nM.

With `COc1cc2ncc3c(N)nc(-c4cncc(OC[C@@H](N)CN5CCN(c6ccncc6)CC5)c4)cc3c2cc1OC` [Ib-107, 2-(5-{[(2S)-2-amino-3-(4-pyridin-4-ylpiperazin-1-yl)propyl]oxy}pyridin-3-yl)-8,9-dimethoxybenzo[c][2,7]naphthyridin-4-amine], the IC50 amounted to 42 nM.

As for `COc1cc2ncc3c(N)nc(-c4cncc(OC[C@@H](N)CNC(C)(C)c5ccncc5)c4)cc3c2cc1OC` [Ib-108, (2S)-3-{[5-(4-amino-8,9-dimethoxybenzo[c][2,7]naphthyridin-2-yl)pyridin-3-yl]oxy}-N1-(1-methyl-1-pyridin-4-ylethyl)propane-1,2-diamine], the IC50 is 7 nM.

For `COc1cc2ncc3c(N)nc(-c4cncc(OC[C@@H](N)CNCC(F)(F)F)c4)cc3c2cc1OC` [Ib-109, (2S)-3-{[5-(4-amino-8,9-dimethoxybenzo[c][2,7]naphthyridin-2-yl)pyridin-3-yl]oxy}-N1-(2,2,2-trifluoroethyl)propane-1,2-diamine], the half-maximal inhibitory concentration (IC50) turned out to be 14 nM.

As to `COc1cc2ncc3c(N)nc(-c4cncc(OC[C@@H](N)CN5CCCC5)c4)cc3c2cc1OC` [Ib-110, 2-(5-{[(2S)-2-amino-3-pyrrolidin-1-ylpropyl]oxy}pyridin-3-yl)-8,9-dimethoxybenzo[c][2,7]naphthyridin-4-amine], the half-inhibitory concentration (IC50) was determined as 14 nM.

With `COc1cc2ncc3c(N)nc(-c4cncc(OC[C@@H](N)CNc5ccc(N)cc5)c4)cc3c2cc1OC` [Ib-111, N-[(2S)-2-amino-3-{[5-(4-amino-8,9-dimethoxybenzo[c][2,7]naphthyridin-2-yl)pyridin-3-yl]oxy}propyl]benzene-1,4-diamine], the concentration for half-maximal inhibition (IC50) turned out to be 81 nM.

With `COc1cc2ncc3c(N)nc(-c4cncc(OC[C@@H](N)CN(C)c5cccc(Cl)c5)c4)cc3c2cc1OC` [Ib-112, (2S)-3-{[5-(4-amino-8,9-dimethoxybenzo[c][2,7]naphthyridin-2-yl)pyridin-3-yl]oxy}-N1-(3-chlorophenyl)-N1-methylpropane-1,2-diamine], the IC50 amounted to 40 nM.

With `COc1cc2ncc3c(N)nc(-c4cncc(OC[C@@H](N)CNc5nccc(C)n5)c4)cc3c2cc1OC` [Ib-113, (2S)-3-{[5-(4-amino-8,9-dimethoxybenzo[c][2,7]naphthyridin-2-yl)pyridin-3-yl]oxy}-N1-(4-methylpyrimidin-2-yl)propane-1,2-diamine], the IC50 was 20 nM.

Consider `COc1cc2ncc3c(N)nc(-c4cncc(OC[C@@H]5CN=C(Nc6ccccc6)N5)c4)cc3c2cc1OC` [Ib-114, 2-(5-{[(5S)-2-anilino-4,5-dihydro-1H-imidazol-5-yl]methoxy}pyridin-3-yl)-8,9-dimethoxybenzo[c][2,7]naphthyridin-4-amine], for which the IC50 stood at 82 nM.
